Here are results for one molecule from PMC3244877 (2009).

This test addresses T1, HsEg5 (Homo sapiens, UniProt P52732).
T1 sequence (P52732 1-370): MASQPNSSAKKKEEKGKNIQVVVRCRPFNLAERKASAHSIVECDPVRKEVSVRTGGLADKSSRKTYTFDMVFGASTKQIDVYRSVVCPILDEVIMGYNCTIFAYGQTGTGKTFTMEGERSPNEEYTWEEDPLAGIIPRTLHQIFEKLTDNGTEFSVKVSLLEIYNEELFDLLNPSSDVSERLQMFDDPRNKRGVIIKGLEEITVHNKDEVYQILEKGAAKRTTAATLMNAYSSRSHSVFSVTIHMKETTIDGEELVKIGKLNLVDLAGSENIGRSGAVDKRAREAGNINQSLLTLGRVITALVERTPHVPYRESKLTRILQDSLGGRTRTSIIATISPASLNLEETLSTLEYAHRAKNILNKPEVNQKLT
Kind of test: NADH-coupled basal ATPase assay, Lineweaver-Burk. In kind it is biochemical.

A word on the Ki: it is a dissociation constant, usually derived from enzyme kinetics or from competition with a known ligand. Read a low Ki as tighter binding. The molecule `[Mo]` [NSC 622124] gave a Ki of 550 nM.
